# In patent US20020182260A1, “Anti-inflammatory agents and methods for their preparation and use” (Cellegy Pharmaceuticals, Inc., priority 1998, published 2002):
# Like-named read-outs stand apart in the source and are kept apart here.
# How the values were obtained:
# Assay type in all cases: cell-based
# [1] = system: T-lymphocytes isolated from mouse thymus; assay: T-lymphocyte proliferation assay (Con A, [3H]thymidine incorporation); details: read-out: IC50, suppression of T-cell proliferation
# Method: T-lymphocytes were isolated from mouse thymus by standard methods, and suspended in DMEM (see, e.g., Mishell B B and Shiigi S M, eds., “Cell Proliferation” in Selected Methods in Cellular Immunology, V, XXIX, W. H. Freeman Co., San Francisco, Calif. pp. 153-160, 1980 and Dayton et al. (1992) Mol. Pharmacol. 41: 671-676). A total of 5×10^6 cells/ml were incubated overnight at 37° C. in the presence of 3 μg/ml Con A to assess stimulation (positive score, related to 10 U/ml of rat interleukin-2) or suppression (negative score, related to control) of cell proliferation. Test substances were evaluated under these conditions at a pre-defined concentration. After overnight incubation, 2 μCi [^3H]thymidine was added to each well. Cells were harvested after an additional 48 hours incubation, and thymidine incorporation assessed by liquid scintillation counting.
# All 40 fractions were subsequently tested in the ConA-induced T-cell proliferation assay, the same assay described in Example 4. Fractions providing greater than or equal to 40% suppression are considered active.
# [2] = system: B-lymphocytes isolated from mouse spleen; assay: B-lymphocyte proliferation assay (LPS, [3H]thymidine incorporation); details: B-cell, read-out: IC50, suppression of B-cell proliferation
# Method: B-lymphocytes were isolated from mouse spleen by standard methods, and suspended in DMEM. A total of 10^6 cells/ml were incubated overnight at 37° C. in the presence of 1 μg/ml lipopolysaccharide (LPS) to assess stimulation (positive score, related to control) or suppression (negative score, related to control) of cell proliferation. Test substances were evaluated under these conditions at a pre-defined concentration. After overnight incubation, 2 μCi [^3H]thymidine was added to each well. Cells were harvested. after an additional 48 hours incubation, and thymidine incorporation assessed by liquid scintillation counting.
# [3] = system: TNF-α production by human PBMCs; assay: inhibition of LPS-stimulated TNF-α production; details: PBMC, LPS 1 μg/mL, 24 hours, positive control
# Method: TNF-α production by human PBMCs was stimulated using lipopolysaccharide (1 μg/mL) based on a procedure by Schindler et al. (Schindler R et al. Correlations and Interactions in the Production of Interleukin (IL)-6, IL-1, and Tumor Necrosis Factor (TNF) in Human Blood Mononuclear Cells: IL-6 Suppresses IL-1 and TNF. Blood, 75:40-47, 1990). The levels of TNF-α were measured 24 hours following LPS stimulation with a commercially available enzyme-immuno assay (EIA) kit and spectrophotometric measurements were performed with a microplate reader (MRX, Dynatech). The compositions of the present invention were tested in this study were 1, 10, and 50 μg/mL in duplicate. […] The suppression caused by test compounds is expressed as the percent decrease relative to the vehicle control value.
# [4] = system: IL-2 production from human PBMC; assay: inhibition of PHA-stimulated IL-2 production; details: PHA 20 μg/mL, 48 hours, positive control
# Method: In this example, the ability of lanolin fractions to inhibit PHA-stimulated IL-2 production from human peripheral blood mononuclear cells (PBMCs) was assayed. IL-2 production from human PBMC was stimulated by phytohemagglutanin (20 μg/mL) based on a procedure described by Konno et al. (Konno S. I. et al. “Inhibition of Cytokine Production from Human Peripheral Blood Leukocytes by Anti-allergic Agents in vitro.” Eur. J. Pharmacol, 264:265-268, 1994) wherein IL-2 levels were measured 48 hours post-stimulation with a commercially available enzyme-immuno assay (EIA) kit and spectrophotometric measurements were performed with a microplate reader (MRX, Dynatech.) The various compositions of the present invention were tested at final concentrations of […], in duplicate. Dexamethasone was used as the positive control in these studies; the IC50 of dexamethasone was 5 nM. The levels of suppression caused by the test compounds are expressed as the percent decrease relative to the vehicle control values.
structure (smiles),measurement,setting,value
Cn1cnc([N+](=O)[O-])c1Sc1ncnc2nc[nH]c12 [azathioprine],IC50,[1]; positive controls,> 10 µM
same,IC50,[2]; compounds known to suppress,> 10 µM
C[C@@H]1C[C@H]2[C@@H]3CCC4=CC(=O)C=C[C@]4(C)[C@@]3(F)[C@@H](O)C[C@]2(C)[C@@]1(O)C(=O)CO [dexamethasone],IC50,[3],~0.016 µM
same,IC50,[4],0.005 µM
O=P1(N(CCCl)CCCl)NCCCO1 (stereo not drawn) [cyclophosphamide],IC50,[1],> 10 µM
same,IC50,[2],> 10 µM
